Among the data in BindingDB's records for doi:10.1074/jbc.M406801200 (The Scripps Research Institute, 2004) are IC50 values, retold here.

pIC50: −log10 of the molar value.

Bifunctional purine biosynthesis protein ATIC, sequence (P31939 whole entry): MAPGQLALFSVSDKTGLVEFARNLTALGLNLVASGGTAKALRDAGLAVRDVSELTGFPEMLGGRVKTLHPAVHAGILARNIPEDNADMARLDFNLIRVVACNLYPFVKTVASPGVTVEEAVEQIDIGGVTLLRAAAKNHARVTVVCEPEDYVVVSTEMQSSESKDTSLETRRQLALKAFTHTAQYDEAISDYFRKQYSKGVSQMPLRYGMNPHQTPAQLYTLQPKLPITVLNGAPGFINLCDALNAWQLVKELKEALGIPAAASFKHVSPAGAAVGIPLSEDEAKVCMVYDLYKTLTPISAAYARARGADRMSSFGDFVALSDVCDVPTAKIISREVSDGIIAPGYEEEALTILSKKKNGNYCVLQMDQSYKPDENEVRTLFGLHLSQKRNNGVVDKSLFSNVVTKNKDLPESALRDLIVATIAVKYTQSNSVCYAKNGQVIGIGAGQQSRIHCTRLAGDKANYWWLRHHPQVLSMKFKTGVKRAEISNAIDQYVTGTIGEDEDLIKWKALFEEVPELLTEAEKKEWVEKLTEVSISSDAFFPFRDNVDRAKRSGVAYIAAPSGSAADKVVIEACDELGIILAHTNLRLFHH

The test has as its target Bifunctional purine biosynthesis protein ATIC (Homo sapiens, UniProt P31939). Description: AICAR Tfase Inhibition Assay. Conditions: pH 7.5; 22 °C. The method, then:
The human ATIC enzyme was used for the inhibition assay. The assay buffer was flushed with nitrogen to minimize oxidization of cofactor 10-f-THF. The reaction was initiated by adding the substrate AICAR to reaction mixtures containing ATIC, test compounds, and different concentrations of cofactor. […] The THF was generated in the transfer reaction of the formyl group from cofactor to AICAR to produce 5-formyl-AICAR. IC50 values were measured from dose-response curves.
With `O=S(=O)(O)Oc1c(-c2sc3c(ccc4cccc(Cl)c43)c2OS(=O)(=O)O)[nH]c2ccc(Br)cc12` [{4-[5-bromo-3-(sulfooxy)-1H-indol-2-yl]-13-chloro-3-thiatricyclo[7.4.0.0^{2,6}]trideca-1(9),2(6),4,7,10,12-hexaen-5-yl}oxidanesulfonic acid], the pIC50 is 5.85.

As to `Cc1cc(N=Nc2c(C)[nH]n(-c3ccc(S(=O)(=O)O)cc3)c2=O)ccc1S(=O)(=O)Nc1ccccc1`, the pIC50 is 4.94.

With `Cc1[nH]n(-c2ccc(S(=O)(=O)O)cc2)c(=O)c1N=Nc1cc(Cl)cc(S(=O)(=O)O)c1C(=O)O` [4-chloro-2-[(E)-2-[5-hydroxy-3-methyl-1-(4-sulfophenyl)-1H-pyrazol-4-yl]diazen-1-yl]-6-sulfobenzoic acid], the negative-log IC50 (pIC50) is 4.38.

Compound `Cc1ccc(OS(=O)(=O)c2ccc(N=Nc3c(C)[nH]n(-c4ccc(Cl)cc4S(=O)(=O)O)c3=O)cc2)cc1` [5-chloro-2-{5-hydroxy-3-methyl-4-[(E)-2-[4-(4-methylphenoxysulfonyl)phenyl]diazen-1-yl]-1H-pyrazol-1-yl}benzene-1-sulfonic acid] gave a pIC50 of 5.48.

Consider `Cc1[nH]n(-c2cc(Cl)c(S(=O)(=O)O)cc2Cl)c(=O)c1N=Nc1ccc(S(=O)(=O)O)cc1` [yellow 2G], for which the negative-log IC50 (pIC50) is 4.70.
